# Test results published in patent US20260022142A1, “MACROCYCLIC IMMUNOMODULATORS” (Bristol-Myers Squibb Company, priority 2022, published 2026).
# pIC50: −log10 of the molar value. Numbered stars: 1 amine (or outer) side, 2 acyl side, 3 side chain; on linkers, the order of the positions; unused ones are H or OH. Bridge positions count the residues as written; N and C are the ends. Square brackets hold non-standard residues; d marks the D form. Peptide text beside a SMILES is read from it. * marks the point of attachment. ξ: configuration not given here. Phe(4-COOH) = N[C@@H](Cc1ccc(C(=O)O)cc1)C(=O)O; X3 = CC(C)(F)C(=N)NCCC[C@H](N[*:1])C(=O)[*:2]; Bip = N[C@@H](Cc1ccc(-c2ccccc2)cc1)C(=O)O; Phe(3-Me) = Cc1cccc(C[C@H](N)C(=O)O)c1; Val(3-OH) = CC(C)(O)[C@H](N)C(=O)O; hArg = N=C(N)NCCCC[C@H](N)C(=O)O; 4Pal = N[C@@H](Cc1ccncc1)C(=O)O; Cha = N[C@@H](CC1CCCCC1)C(=O)O; Cit = NC(=O)NCCC[C@H](N)C(=O)O; Thr(3ξ) = CC(O)[C@H](N)C(=O)O; 12Ado = NCCCCCCCCCCCC(=O)O; dDab = NCC[C@@H](N)C(=O)O; Carboxymethyl = O=C(O)C*; Orn = NCCC[C@H](N)C(=O)O; Aun = NCCCCCCCCCCC(=O)O; Dab = NCC[C@H](N)C(=O)O; Dap = NC[C@H](N)C(=O)O; Piv = CC(C)(C)C(=O)*
# Biological target: T1, PD-1/PD-L1 interaction (PE-labeled human PD-L1-Ig binding to Jurkat cell line over-expressing human PD-1) (Homo sapiens, UniProt Q15116)
# T1 construct: expressed in transfected cells; host or cells: Jurkat
# T1 sequence (Q15116 25-288): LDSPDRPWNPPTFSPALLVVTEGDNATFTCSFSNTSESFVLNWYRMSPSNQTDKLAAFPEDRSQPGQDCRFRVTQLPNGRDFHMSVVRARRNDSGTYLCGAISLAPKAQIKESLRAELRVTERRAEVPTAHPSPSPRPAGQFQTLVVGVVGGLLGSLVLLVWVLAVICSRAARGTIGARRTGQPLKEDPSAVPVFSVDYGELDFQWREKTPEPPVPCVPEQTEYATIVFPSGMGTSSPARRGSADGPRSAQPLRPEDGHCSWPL
# Experiment: Jurkat-PD-1 Cell Binding High-Content Screening Assay (CBA)
# Assay type: cell-based
# Conditions: Jurkat cell line over-expressing human PD-1; PE-labeled PD-L1-Ig 20 nM final; read-out: Jurkat hPD1-PDL1 IC50
# In short: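 Read-out is high-content imaging of cell-bound phycoerythrin-tagged PD-L1-Ig on fixed, Hoechst-counterstained Jurkat cells that over-express human PD-1. Compound exposure lasts 2 h at 37° C before the labeled ligand (20 nM final) is added for a further hour.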
row,Structure (SMILES),pIC50
1,Cc1cccc(C[C@@H]2NC(=O)[C@H](CC(=O)O)NC(=O)[C@H](Cc3ccc(OCC(=O)O)cc3)NC(=O)[C@H](CN)NC(=O)CSC[C@@H](C(=O)N[C@@H](CCN)C(=O)NCCCCCCCCCCC(=O)O)NC(=O)[C@H](CCC(N)=O)NC(=O)[C@H](C(C)C)NC(=O)[C@H](CC3CCCCC3)NC(=O)[C@H](CCN)NC(=O)[C@@H](CC(C)C)NC(=O)[C@H](CCCN)NC(=O)[C@H](Cc3ccc(O)cc3)NC(=O)[C@H](Cc3ccc(-c4ccccc4)cc3)NC(=O)[C@H](C(C)C)NC2=O)c1 [Compound 2719] ({CH2CO}-[Dap]Y(Carboxymethyl)D[Phe(3-Me)]V[Bip]Y[Orn][dL][Dab][Cha]VQC[Dab][Aun]-OH; thioether N-14),8.13
2,Cc1cccc(C[C@@H]2NC(=O)[C@H](CC(=O)O)NC(=O)[C@H](Cc3ccc(OCC(=O)O)cc3)NC(=O)[C@H](CCNC(=O)C(C)(C)C)NC(=O)CSC[C@@H](C(=O)N[C@@H](CCN)C(=O)NCCCCCCCCCCC(=O)O)NC(=O)[C@H]([C@@H](C)O)NC(=O)[C@H](C(C)C)NC(=O)[C@H](CC3CCCCC3)NC(=O)[C@H](CCN)NC(=O)[C@@H](CC(C)C)NC(=O)[C@H](CCCN)NC(=O)[C@H](Cc3ccc(OCC(=O)O)cc3)NC(=O)[C@H](Cc3ccc(-c4ccccc4)cc3)NC(=O)[C@H](Cc3ccc(C(=O)O)cc3)NC2=O)c1 [Compound 2127] ({CH2CO}-[Dab](Piv)Y(Carboxymethyl)D[Phe(3-Me)][Phe(4-COOH)][Bip]Y(Carboxymethyl)[Orn][dL][Dab][Cha]VTC[Dab][Aun]-OH; thioether N-14),7.55

# Now from value to compound:
row,pIC50,Structure (SMILES)
1,7.68,Cc1cccc(C[C@@H]2NC(=O)[C@H](CC(=O)O)NC(=O)[C@H](Cc3ccc(OCC(=O)O)cc3)NC(=O)[C@H](Cc3ccncc3)NC(=O)CSC[C@@H](C(=O)N[C@H](CCN)C(=O)NCCCCCCCCCCC(=O)O)NC(=O)[C@H](Cc3cnc[nH]3)NC(=O)[C@H](C(C)(C)O)NC(=O)[C@H](CC3CCCCC3)NC(=O)[C@H](CCN)NC(=O)[C@@H](CC(C)C)NC(=O)[C@H](CCCN)NC(=O)[C@H](Cc3ccc(OCC(=O)O)cc3)NC(=O)[C@H](Cc3ccc(-c4ccccc4)cc3)NC(=O)[C@H](Cc3ccc(OCC(=O)O)cc3)NC2=O)c1 [Compound 3738] ({CH2CO}-[4Pal]Y(Carboxymethyl)D[Phe(3-Me)]Y(Carboxymethyl)[Bip]Y(Carboxymethyl)[Orn][dL][Dab][Cha][Val(3-OH)]HC[dDab][Aun]-OH; thioether N-14)
2,7.74,Cc1cccc(C[C@@H]2NC(=O)[C@H](CC(=O)O)NC(=O)[C@H](Cc3ccc(OCC(=O)O)cc3)NC(=O)[C@H](CCCCNC(=N)N)NC(=O)CSC[C@@H](C(=O)N[C@@H](CCN)C(=O)NCCCCCCCCCCC(=O)O)NC(=O)[C@H](C(C)O)NC(=O)[C@H](C(C)C)NC(=O)[C@H](CC3CCCCC3)NC(=O)[C@H](CCN)NC(=O)[C@@H](CC(C)C)NC(=O)[C@H](CCCN)NC(=O)[C@H](CCCNC(=N)C(C)(C)F)NC(=O)[C@H](Cc3ccc(-c4ccccc4)cc3)NC(=O)[C@H](Cc3ccc(O)cc3)NC2=O)c1 (stereo partly drawn) [Compound 3579] ({CH2CO}-[hArg]Y(Carboxymethyl)D[Phe(3-Me)]Y[Bip][X3][Orn][dL][Dab][Cha]V[Thr(3ξ)]C[Dab][Aun]-OH; thioether N-14)
3,7.34,Cc1cccc(C[C@@H]2NC(=O)[C@H](CC(=O)O)NC(=O)[C@H](Cc3ccc(OCC(=O)O)cc3)NC(=O)[C@H](CCCCNC(=N)N)NC(=O)CSC[C@@H](C(=O)NCC(=O)N[C@@H](CCC(=O)O)C(=O)NCCCCCCCCCCCC(=O)O)NC(=O)[C@H](CO)NC(=O)[C@H](C(C)C)NC(=O)[C@H](CC3CCCCC3)NC(=O)[C@H](C(C)O)NC(=O)[C@@H](CC(C)C)NC(=O)[C@H](CCCN)NC(=O)[C@H](CCCNC(N)=O)NC(=O)[C@H](Cc3ccc(-c4ccccc4)cc3)NC(=O)[C@H](C(C)C)NC2=O)c1 (stereo partly drawn) [Compound 3182] ({CH2CO}-[hArg]Y(Carboxymethyl)D[Phe(3-Me)]V[Bip][Cit][Orn][dL][Thr(3ξ)][Cha]VSCGE[12Ado]-OH; thioether N-14)
